Measurements taken from patent US20240238424A1, “HETEROBIFUNCTIONAL COMPOUNDS AND METHODS OF TREATING DISEASE” (Halda Therapeutics OpCo, Inc., priority 2021, published 2024).

Target: T1, GSPT1 (Homo sapiens, UniProt P15170+Q96SW2)
T1 construct: host or cells: HEK293 LgBiT cell line
Assay: GSPT1 HiBit degradation assay
Assay type: cell-based
Conditions: Table 3A; HEK293 LgBiT cells expressing GSPT1_HiBiT, luminescence after 6 hours
Excerpt: Promega developed a HEK293 cell line that constitutively expresses LgBiT protein and GSPT1_HiBiT fusion protein. When both proteins are present, the HiBiT portion of the fusion protein combines with LgBiT protein to form a functional luciferase enzyme. Endurazine, a cell permeable small molecule, is converted by cellular esterases into furimazine, which the luciferase enzyme uses as a substrate to generate luminescence. When GSPT1 is degraded, the HiBit is also degraded. This prevents formation of fully functional luciferase, leading to a loss in luminescence. GSPT1 degradation therefore correlates with a decrease in luminescence and can be measured continuously over time. The concentration of compound at which 50% GSPT1 degradation occurs (DC50) was calculated using this system.
• HEK293 LgBiT Cell line (Promega Custom) • Endurazine Substrate (Promega Cat. #N2570) • DMEM (Gibco Cat. #11995) • Penicillin/Streptomycin (Gibco Cat. #15140-122) • Heat Inactivated Fetal Bovine Serum (Gibco Cat. #A38400-01) • Hygromycin B (Gibco Cat. #10-687-010) • 384 Well TC Treated White Microplate (Perkin Elmer Cat. #6007680)
HEK293 LgBiT cells were cultured in DMEM Media supplemented with 10% FBS, 5% Pen/Strep, 200 μg/ml hygromycin and stored in an incubator set at 37° C. and 5% CO2. 18-24 hours prior to compound treatment, HEK293 LgBiT cells were seeded at 1000 cells/well in a 384-well microplate in 25 μl complete media. The plate was spun at 300 g for 30 seconds and stored in the incubator overnight. The next day, compounds were titrated in DMSO and added to media supplemented with endurazine substrate. A 25 ul aliquot of 2× compound/endurazine in media were then added to the 384-well microplate with seeded cells. (Endurazine was used at a final concentration of 0.5×). The plate was spun at 300 g for 30 seconds and stored in the incubator. After 6 hours the plate was read on a Perkin Elmer MultiMode Plate Reader Envision 2105 to measure luminescence signal.

T1 sequence (P15170 whole entry): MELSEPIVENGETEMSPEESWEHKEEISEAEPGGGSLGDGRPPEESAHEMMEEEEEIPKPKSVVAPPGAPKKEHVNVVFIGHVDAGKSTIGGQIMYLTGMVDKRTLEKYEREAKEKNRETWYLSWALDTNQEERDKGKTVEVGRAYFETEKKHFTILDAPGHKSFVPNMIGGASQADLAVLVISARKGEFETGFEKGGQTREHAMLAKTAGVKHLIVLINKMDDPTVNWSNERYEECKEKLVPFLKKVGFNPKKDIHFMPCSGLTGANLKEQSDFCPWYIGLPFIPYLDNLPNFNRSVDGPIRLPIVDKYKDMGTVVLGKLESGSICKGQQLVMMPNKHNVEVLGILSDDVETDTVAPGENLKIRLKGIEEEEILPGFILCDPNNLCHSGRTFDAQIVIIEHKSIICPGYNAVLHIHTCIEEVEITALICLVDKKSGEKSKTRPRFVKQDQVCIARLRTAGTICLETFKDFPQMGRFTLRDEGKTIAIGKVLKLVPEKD
T1 sequence (Q96SW2 whole entry): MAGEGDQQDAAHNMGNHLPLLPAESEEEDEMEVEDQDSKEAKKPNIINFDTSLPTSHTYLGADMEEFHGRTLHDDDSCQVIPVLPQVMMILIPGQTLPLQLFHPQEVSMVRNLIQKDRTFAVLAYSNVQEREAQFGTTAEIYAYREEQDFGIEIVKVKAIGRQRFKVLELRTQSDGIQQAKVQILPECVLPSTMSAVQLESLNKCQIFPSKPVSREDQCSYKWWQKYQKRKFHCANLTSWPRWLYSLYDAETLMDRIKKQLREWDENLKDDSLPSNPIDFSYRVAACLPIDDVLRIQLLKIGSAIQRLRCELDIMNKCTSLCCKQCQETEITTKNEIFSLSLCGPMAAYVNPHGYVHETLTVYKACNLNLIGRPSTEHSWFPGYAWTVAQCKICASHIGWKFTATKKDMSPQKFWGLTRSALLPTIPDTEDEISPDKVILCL
T1 sequence (Q16531 whole entry partner): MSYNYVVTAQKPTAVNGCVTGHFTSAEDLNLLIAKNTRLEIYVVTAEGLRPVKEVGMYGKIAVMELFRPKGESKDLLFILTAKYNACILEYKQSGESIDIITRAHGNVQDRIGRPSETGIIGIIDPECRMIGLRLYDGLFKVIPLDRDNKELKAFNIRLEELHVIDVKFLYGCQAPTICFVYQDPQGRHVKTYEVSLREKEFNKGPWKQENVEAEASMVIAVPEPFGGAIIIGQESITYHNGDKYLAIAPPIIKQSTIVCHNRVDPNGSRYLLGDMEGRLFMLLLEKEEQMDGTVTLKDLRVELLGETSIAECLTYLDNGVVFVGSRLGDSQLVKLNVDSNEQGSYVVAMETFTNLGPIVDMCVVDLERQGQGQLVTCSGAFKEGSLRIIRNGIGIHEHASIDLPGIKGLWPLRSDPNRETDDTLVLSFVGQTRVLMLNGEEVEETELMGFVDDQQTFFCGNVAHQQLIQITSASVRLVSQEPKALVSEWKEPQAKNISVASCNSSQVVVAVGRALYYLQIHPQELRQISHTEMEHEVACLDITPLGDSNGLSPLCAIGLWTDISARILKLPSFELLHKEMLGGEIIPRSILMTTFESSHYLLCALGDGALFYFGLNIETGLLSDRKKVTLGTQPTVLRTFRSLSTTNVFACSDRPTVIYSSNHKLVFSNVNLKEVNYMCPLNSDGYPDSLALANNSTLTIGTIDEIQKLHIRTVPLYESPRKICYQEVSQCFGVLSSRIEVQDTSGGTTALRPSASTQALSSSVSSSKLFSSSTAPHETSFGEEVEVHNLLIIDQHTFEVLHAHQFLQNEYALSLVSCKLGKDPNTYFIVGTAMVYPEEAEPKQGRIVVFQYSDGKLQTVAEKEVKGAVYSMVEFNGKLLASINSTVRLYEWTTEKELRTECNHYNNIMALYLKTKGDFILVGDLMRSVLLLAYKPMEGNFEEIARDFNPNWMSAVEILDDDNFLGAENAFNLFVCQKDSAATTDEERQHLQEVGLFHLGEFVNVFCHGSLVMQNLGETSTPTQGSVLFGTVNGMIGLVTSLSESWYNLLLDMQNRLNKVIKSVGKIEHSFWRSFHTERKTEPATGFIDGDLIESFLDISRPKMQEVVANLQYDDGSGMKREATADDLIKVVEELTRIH

DC50 | Structure (SMILES)
0.25 to 5 µM | CN(C/C=C/C(=O)N1CCN(c2nc(OC[C@@H]3CCCN3C)nc3c2CCN(c2cccc4cccc(Cl)c24)C3)C[C@@H]1CC#N)CCOCCOCCOCCOCCOCCCCCc1cc(Cl)cc(NC(=O)NCc2ccc3c(c2)CN(C2CCC(=O)NC2=O)C3=O)c1 (some centres unmarked) [Compound I-108]
0.25 to 5 µM | CN(C/C=C/C(=O)N1CCC[C@@H](n2nc(-c3ccc(Oc4ccccc4)cc3)c3c(N)ncnc32)C1)CCOCCOCCOCCCCCc1cc(Cl)cc(NC(=O)NCc2ccc3c(c2)CN(C2CCC(=O)NC2=O)C3=O)c1 (some centres unmarked) [Compound I-110]
0.25 to 5 µM | CN(C/C=C/C(=O)N1CCC[C@@H](n2nc(-c3ccc(Oc4ccccc4)cc3)c3c(N)ncnc32)C1)CCOCCOCCOCCOCCOCCOCCOCCCCCc1cc(Cl)cc(NC(=O)NCc2ccc3c(c2)CN(C2CCC(=O)NC2=O)C3=O)c1 (some centres unmarked) [Compound I-111]
0.25 to 5 µM | Cc1c(NC(=O)c2ccc(C3CC3)cc2F)cc(F)cc1-c1ncnc(N)c1OCCN(C)C(=O)/C=C/CN(C)CCOCCOCCOCCCCCc1cc(Cl)cc(NC(=O)NCc2ccc3c(c2)CN(C2CCC(=O)NC2=O)C3=O)c1 (centres unmarked) [Compound I-112]
0.25 to 5 µM | Cc1c(NC(=O)c2ccc(C3CC3)cc2F)cc(F)cc1-c1ncnc(N)c1OCCN(C)C(=O)/C=C/CN(C)CCOCCOCCOCCOCCOCCOCCOCCCCCc1cc(Cl)cc(NC(=O)NCc2ccc3c(c2)CN(C2CCC(=O)NC2=O)C3=O)c1 (centres unmarked) [Compound I-113]
> 10 µM | Cc1ccc(NC(=O)NC(CCCCCOCCOCCOCCOCCOCCN(C)C/C=C/C(=O)N2CCN(c3nc(OC[C@@H]4CCCN4C)nc4c3CCN(c3cccc5cccc(Cl)c35)C4)C[C@@H]2CC#N)c2ccc3c(c2)CN(C2CCC(=O)NC2=O)C3=O)cc1Cl (some centres unmarked) [Compound I-114]
5 to 10 µM | Cc1ccc(NC(=O)NC(CCCCCOCCOCCOCCN(C)C/C=C/C(=O)N2CCN(c3nc(OC[C@@H]4CCCN4C)nc4c3CCN(c3cccc5cccc(Cl)c35)C4)C[C@@H]2CC#N)c2ccc3c(c2)CN(C2CCC(=O)NC2=O)C3=O)cc1Cl (some centres unmarked) [Compound I-115]
5 to 10 µM | CN(C/C=C/C(=O)N1CCC[C@@H](n2nc(-c3ccc(Oc4ccccc4)cc3)c3c(N)ncnc32)C1)CCOCCOCCOCCOCCOCCOCCOCCOCCOCCCCCc1cc(Cl)cc(NC(=O)NCc2ccc3c(c2)CN(C2CCC(=O)NC2=O)C3=O)c1 (some centres unmarked) [Compound I-117]
0.25 to 5 µM | COc1cc(N2CCN(C(=O)COCCOCCOCCOCCOCCCCCc3cc(Cl)cc(NC(=O)NCc4ccc5c(c4)CN(C4CCC(=O)NC4=O)C5=O)c3)CC2)ccc1Nc1ncc(Cl)c(Nc2ccccc2P(C)(C)=O)n1 (centres unmarked) [Compound I-119]
< 0.25 µM | COc1cc(N2CCN(C(=O)COCCOCCOCCCCCc3cc(Cl)cc(NC(=O)NCc4ccc5c(c4)CN(C4CCC(=O)NC4=O)C5=O)c3)CC2)ccc1Nc1ncc(Cl)c(Nc2ccccc2P(C)(C)=O)n1 (centres unmarked) [Compound I-121]
0.25 to 5 µM | C=CC(=O)NC1CN(c2nc(Nc3cn(CCOCCOCCOCCOCCOCCOCCOCCOCCOCCCCCc4cc(Cl)cc(NC(=O)NCc5ccc6c(c5)CN(C5CCC(=O)NC5=O)C6=O)c4)nc3OC)c3ncn(C)c3n2)C[C@H]1F (some centres unmarked) [Compound I-126]
0.25 to 5 µM | Cc1c(NC(=O)c2ccc(C3CC3)cc2F)cc(F)cc1-c1ncnc(N)c1OCCN(C)C(=O)/C=C/CN(C)CCOCCOCCOCCOCCOCCOCCOCCOCCOCCCCCc1cc(Cl)cc(NC(=O)NCc2ccc3c(c2)CN(C2CCC(=O)NC2=O)C3=O)c1 (centres unmarked) [Compound I-129]
0.25 to 5 µM | C=C(F)C(=O)N1CCN(c2nc(OC[C@@H]3CCCN3CCCOCCOCCOCCOCCOCCCCCc3cc(Cl)cc(NC(=O)NCc4ccc5c(c4)CN(C4CCC(=O)NC4=O)C5=O)c3)nc3c2CCN(c2cccc4cccc(Cl)c24)C3)C[C@@H]1CC#N (some centres unmarked) [Compound I-133]
0.25 to 5 µM | CN(CCOCCOCCOCCOCCOCCOCCOCCOCCOCCCCCc1cc(Cl)cc(NC(=O)NCc2ccc3c(c2)CN(C2CCC(=O)NC2=O)C3=O)c1)C(=O)CO[C@H]1CC[C@H]2[C@@H]3CC[C@H]4CC(=O)CC[C@]4(C)[C@H]3CC[C@]12C (some centres unmarked) [Compound I-135]
0.25 to 5 µM | C=C(F)C(=O)N1CCN(c2nc(OC[C@@H]3C[C@@H](OCC(=O)N(C)CCOCCOCCOCCOCCOCCOCCOCCCCCc4cc(Cl)cc(NC(=O)NCc5ccc6c(c5)CN(C5CCC(=O)NC5=O)C6=O)c4)CN3C)nc3c2CCN(c2cccc4cccc(Cl)c24)C3)C[C@@H]1CC#N (some centres unmarked) [Compound I-136]
0.25 to 5 µM | C=CC(=O)Nc1cc(Nc2nccc(-c3cn(C)c4ccccc34)n2)c(OC)cc1N(C)CCN(C)CCOCCOCCOCCOCCOCCOCCOCCCCCc1cc(Cl)cc(NC(=O)NCc2ccc3c(c2)CN(C2CCC(=O)NC2=O)C3=O)c1 (centres unmarked) [Compound I-139]
0.25 to 5 µM | C=C(F)C(=O)N1CCN(c2nc(OC[C@@H]3CCCN3CCCOCCOCCOCCOCCOCCCCCc3ccc(Cl)cc3NC(=O)NCc3ccc4c(c3)CN(C3CCC(=O)NC3=O)C4=O)nc3c2CCN(c2cccc4cccc(Cl)c24)C3)C[C@@H]1CC#N (some centres unmarked) [Compound I-140]
0.25 to 5 µM | COc1cc(N2CCN(C(=O)COCCOCCOCCOCCOCCOCCOCCOCCOCCCCCc3cc(Cl)cc(NC(=O)NCc4ccc5c(c4)CN(C4CCC(=O)NC4=O)C5=O)c3)CC2)ccc1Nc1ncc(Cl)c(Nc2ccccc2P(C)(C)=O)n1 (centres unmarked) [Compound I-141]
0.25 to 5 µM | Cc1c(NC(=O)c2ccc(C3CC3)cc2F)cc(F)cc1-c1ncnc(N)c1OCCN(C)C(=O)/C=C/CN(C)CCOCCOCCOCCOCCOCCOCCOCCOCCOCCOCCOCCCCCc1cc(Cl)cc(NC(=O)NCc2ccc3c(c2)CN(C2CCC(=O)NC2=O)C3=O)c1 (centres unmarked) [Compound I-143]
0.25 to 5 µM | C=CC(=O)N1CCN(c2nc(=O)n(-c3c(C)cc(OCCOCCOCCOCCOCCOCCCCCc4cc(Cl)cc(NC(=O)NCc5ccc6c(c5)CN(C5CCC(=O)NC5=O)C6=O)c4)nc3C(C)C)c3nc(-c4c(O)cccc4F)c(F)cc23)[C@@H](C)C1 (some centres unmarked) [Compound I-149]
0.25 to 5 µM | C=CC(=O)N1CCN(c2nc(=O)n(-c3c(C)cc(OCCOCCOCCOCCOCCOCCOCCOCCCCCc4cc(Cl)cc(NC(=O)NCc5ccc6c(c5)CN(C5CCC(=O)NC5=O)C6=O)c4)nc3C(C)C)c3nc(-c4c(O)cccc4F)c(F)cc23)[C@@H](C)C1 (some centres unmarked) [Compound I-153]
0.25 to 5 µM | C=CC(=O)N1CCN(c2nc(=O)n(-c3c(C)cc(OCCOCCOCCOCCOCCOCCOCCOCCOCCOCCCCCc4cc(Cl)cc(NC(=O)NCc5ccc6c(c5)CN(C5CCC(=O)NC5=O)C6=O)c4)nc3C(C)C)c3nc(-c4c(O)cccc4F)c(F)cc23)[C@@H](C)C1 (some centres unmarked) [Compound I-154]
0.25 to 5 µM | C=C(F)C(=O)N1CCN(c2nc(OC[C@@H]3CCCN3CCCOCCOCCOCCOCCOCCOCCOCCOCCOCCCCCc3cccc(NC(=O)NCc4ccc5c(c4)CN(C4CCC(=O)NC4=O)C5=O)n3)nc3c2CCN(c2cccc4cccc(Cl)c24)C3)C[C@@H]1CC#N (some centres unmarked) [Compound I-156]
0.25 to 5 µM | CN(C/C=C/C(=O)N1CCN(c2nc(OC[C@@H]3CCCN3C)nc3c2CCN(c2cccc4cccc(Cl)c24)C3)C[C@@H]1CC#N)CCOCCOCCOCCOCCOCCOCCOCCOCCOCCCCCc1cc(Cl)cc(NC(=O)NCc2ccc3c(c2)CN(C2CCC(=O)NC2=O)C3=O)c1 (some centres unmarked) [Compound I-162]
5 to 10 µM | CN(C/C=C/C(=O)N1CCN(c2nc(OC[C@@H]3CCCN3C)nc3c2CCN(c2cccc4cccc(Cl)c24)C3)C[C@@H]1CC#N)CCOCCOCCOCCOCCOCCOCCOCCOCCOCCCCCc1cc(Cl)cc(NC(=O)NCc2ccc3c(c2)CN(C2CCC(=O)N(C)C2=O)C3=O)c1 (some centres unmarked) [Compound I-164]
0.25 to 5 µM | C=CC(=O)N1CCN(c2nc(=O)n(-c3c(C)cc(OCCOCCOCCOCCOCCOCCOCCOCCOCCOCCOCCOCCCCCc4cc(Cl)cc(NC(=O)NCc5ccc6c(c5)CN(C5CCC(=O)NC5=O)C6=O)c4)nc3C(C)C)c3nc(-c4c(O)cccc4F)c(F)cc23)[C@@H](C)C1 (some centres unmarked) [Compound I-165]
